This note sets out measurements from patent US20220144838A1, “Compounds as Inhibitors of Macrophage Migration Inhibitory Factor” (NANJING IMMUNOPHAGE BIOTECH CO., LTD., priority 2019, published 2022).

Molecules are shown by their SMILES. Bounds are passed on as bounds.

In one experiment the target is T1, MIF (Homo sapiens, UniProt P14174).
T1 sequence (P14174 2-115 limits assumed): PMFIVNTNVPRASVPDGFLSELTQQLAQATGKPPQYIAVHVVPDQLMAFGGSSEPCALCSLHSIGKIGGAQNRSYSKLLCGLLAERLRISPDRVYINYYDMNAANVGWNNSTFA
Nature of the experiment: MIF tautomerase assay using pHPP as substrate. It is filed as biochemical. The note with it: FIGS. 1-5; mean of multiple test results; read-out: pIC50 MIF tautomerase activity (converted). The protocol: Tautomerase Assay Using pHPP as Substrate
This assay measured MIF's tautomerase activity in a cell-free system and was based on the determination of initial rates of the MIF-catalyzed conversion of the ketonic into the enolic tautomer of pHPP. This was achieved by spectrophotometric quantification of the complex between borate and the product of the reaction (enolic pHPP). The substrate was prepared by conversion of the enolic pHPP into its ketonic form. To achieve this, 0.5 M pHPP in methanol was diluted 10-fold with 50 mM sodium acetate buffer at pH 6.0, and then the suspension was shaken for 24 h at room temperature in darkness, and finally stored at 4° C. for not more than 1 week, with 5 min sonication being recommended before use.
Assays were performed in small-volume clear-bottom black 96 or 384-well polystyrene plates (Greiner Bio-One). First, 2 μL of the enzyme solution containing 6 nM of MIF in DPBS, 0.025% w/v BSA, and 300 μM CHAPS was dispensed onto sample and negative control wells using Multidrop Combi with metallic tip cassettes (Thermo Fisher Scientific) previously treated with Sigmacote. Then, 2 μL of the same buffer without MIF was dispensed onto positive control wells. The reaction was started by addition of the following to all wells: 2 μL of substrate solution containing 3 mM ketonic pHPP in 200 mM boric acid, 25 mM sodium phosphate, 0.025% w/v BSA, and 300 μM CHAPS at pH 6.0. In order to remove bubbles, the plate was centrifuged in an Allegra 25R centrifuge (Beckman Coulter, Inc., Brea, Calif.) at 1000 rpm for 2 min at room temperature. Then, the plate was read in an EnVision. Final concentrations of enzyme and substrate were 3 nM and 1.5 mM, respectively. Initial rates were calculated for each well as the slope of the absorbance progress curve.
All exemplified compounds (Examples 1-230) were tested in the MIF tautomerase assay or a similar assay described above. The data mentioned below represents a mean pIC50 value of multiple test results. It is understood that the data illustrated below may have reasonable variation depending on the specific conditions and procedures used by the person conducting the testing.
Regarding `O=C(Cn1cnc2c(-n3ncc4ccccc43)nc(N3CCN(c4ccc(O)cc4)CC3)nc21)NS(=O)(=O)C1CC1` [Example 55, N-(cyclopropylsulfonyl)-2-(2-(4-(4-hydroxyphenyl)piperazin-1-yl)-6-(1H-indazol-1-yl)-9H-purin-9-yl)acetamide], the IC50 was at most 0.1 µM.

Still in this experiment, the particulars now being: inhibition of the MIF enzyme in vitro; mean of multiple test results; read-out: Tautomerase Inhibition pIC50 (converted).
Consider `CCOC(=O)Cn1cnc2c(-n3ncc4ccccc43)nc(N3CCN(c4ccc(O)cc4)CC3)nc21` [Example 44, ethyl 2-(2-(4-(4-hydroxyphenyl)piperazin-1-yl)-6-(1H-indazol-1-yl)-9H-purin-9-yl)acetate], for which the IC50 is 0.1 to 0.977 µM. As for `O=C(O)Cn1cnc2c(-n3ncc4ccccc43)nc(N3CCN(c4ccc(O)cc4)CC3)nc21` [Example 45, 2-(2-(4-(4-hydroxyphenyl)piperazin-1-yl)-6-(1H-indazol-1-yl)-9H-purin-9-yl)acetic acid], the IC50 was 0.01 to 0.0977 µM. Regarding `O=C(O)Cn1cnc2nc(N3CCN(c4ccc(O)cc4)CC3)nc(-n3ncc4ccccc43)c21` [Example 46, 2-(2-(4-(4-hydroxyphenyl)piperazin-1-yl)-6-(1H-indazol-1-yl)-7H-purin-7-yl)acetic acid], the IC50 was 0.1 to 0.977 µM. Take `NC(=O)Cn1cnc2c(-n3ncc4ccccc43)nc(N3CCN(c4ccc(O)cc4)CC3)nc21` [Example 47, 2-(2-(4-(4-hydroxyphenyl)piperazin-1-yl)-6-(1H-indazol-1-yl)-9H-purin-9-yl)acetamide]: the IC50 is 0.1 to 0.977 µM. Still for that read-out and setting: the result for `O=C(O)Cn1cnc2c(N3N=CC4C=CC=CC43)nc(N3CCN(c4ccccc4)CC3)nc21` (centres unmarked) [Example 48, 2-(6-(3a,7a-dihydro-1H-indazol-1-yl)-2-(4-phenylpiperazin-1-yl)-9H-purin-9-yl)acetic acid] reads 0.1 to 0.977 µM. Take `O=C(O)Cn1cnc2c(N3N=CC4C=CC=CC43)nc(N3CCN(c4ccncc4)CC3)nc21` (centres unmarked) [Example 49, 2-(6-(3a,7a-dihydro-1H-indazol-1-yl)-2-(4-(pyridin-4-yl)piperazin-1-yl)-9H-purin-9-yl)acetic acid]: the IC50 was above 10 µM. With `COc1ccc2cnn(-c3nc(N4CCN(c5ccc(O)cc5)CC4)nc4c3ncn4CC(=O)O)c2c1` [Example 50, 2-(2-(4-(4-hydroxyphenyl)piperazin-1-yl)-6-(6-methoxy-1H-indazol-1-yl)-9H-purin-9-yl)acetic acid], the IC50 was 1 to 9.77 µM.

As to `N#Cc1ccc2c(cnn2-c2nc(N3CCN(c4ccc(O)cc4)CC3)nc3c2ncn3CC(=O)O)c1` [Example 52, 2-(6-(5-cyano-1H-indazol-1-yl)-2-(4-(4-hydroxyphenyl)piperazin-1-yl)-9H-purin-9-yl)acetic acid], the IC50 is 0.01 to 0.0977 µM. As for `CCS(=O)(=O)NC(=O)Cn1cnc2c(-n3ncc4ccccc43)nc(N3CCN(c4ccc(O)cc4)CC3)nc21` [Example 53, N-(ethylsulfonyl)-2-(2-(4-(4-hydroxyphenyl)piperazin-1-yl)-6-(1H-indazol-1-yl)-9H-purin-9-yl)acetamide], the IC50 was 0.01 to 0.0977 µM. On the same count and under the same terms, the figure for `CC(C)S(=O)(=O)NC(=O)Cn1cnc2c(-n3ncc4ccccc43)nc(N3CCN(c4ccc(O)cc4)CC3)nc21` [Example 54, 2-(2-(4-(4-hydroxyphenyl)piperazin-1-yl)-6-(1H-indazol-1-yl)-9H-purin-9-yl)-N-(isopropylsulfonyl)acetamide] is 0.1 to 0.977 µM; for `O=C(Cn1cnc2c(-n3ncc4ccccc43)nc(N3CCN(c4ccc(O)cc4)CC3)nc21)NS(=O)(=O)C1CC1` [Example 55, N-(cyclopropylsulfonyl)-2-(2-(4-(4-hydroxyphenyl)piperazin-1-yl)-6-(1H-indazol-1-yl)-9H-purin-9-yl)acetamide] it is 0.01 to 0.0977 µM. On the same count and under the same terms, the result for `CCCS(=O)(=O)NC(=O)Cn1cnc2c(-n3ncc4ccccc43)nc(N3CCN(c4ccc(O)cc4)CC3)nc21` [Example 56, 2-(2-(4-(4-hydroxyphenyl)piperazin-1-yl)-6-(1H-indazol-1-yl)-9H-purin-9-yl)-N-(propylsulfonyl)acetamide] reads 0.1 to 0.977 µM. Same read-out and setting: the figure for `CS(=O)(=O)NC(=O)Cn1cnc2c(-n3ncc4ccccc43)nc(N3CCN(c4ccc(O)cc4)CC3)nc21` [Example 57, 2-(2-(4-(4-hydroxyphenyl)piperazin-1-yl)-6-(1H-indazol-1-yl)-9H-purin-9-yl)-N-(methylsulfonyl)acetamide] is 0.01 to 0.0977 µM; for `O=C1Cc2cccnc2N1c1nc(N2CCN(c3ccc(O)cc3)CC2)nc2c1ncn2CCO` [Example 58, 1-(9-(2-hydroxyethyl)-2-(4-(4-hydroxyphenyl)piperazin-1-yl)-9H-purin-6-yl)-1H-pyrrolo[2,3-b]pyridin-2(3H)-one] it is 1 to 9.77 µM. As for `Cc1nc(N2CCN(c3ccc(O)cc3)CC2)nc2c1ncn2-c1cccnc1` [Example 59, 4-(4-(6-methyl-9-(pyridin-3-yl)-9H-purin-2-yl)piperazin-1-yl)phenol], the IC50 is 0.1 to 0.977 µM. Turning to `Cc1nc(N2CCN(c3ccc(O)cc3)CC2)nc2c1ncn2-c1cccnc1O` [Example 60, 3-(2-(4-(4-hydroxyphenyl)piperazin-1-yl)-6-methyl-9H-purin-9-yl)pyridin-2-ol], the IC50 is 0.1 to 0.977 µM. On to `COc1cccc(-n2cnc3c(C)nc(N4CCN(c5ccc(O)cc5)CC4)nc32)c1Cl` [Example 61, 4-(4-(9-(2-chloro-3-methoxyphenyl)-6-methyl-9H-purin-2-yl)piperazin-1-yl)phenol], for which the IC50 is 1 to 9.77 µM. As for `Cc1nc(N2CCN(c3ccc(O)cc3)CC2)nc2c1ncn2-c1cc(Cl)cnn1` [Example 63, 4-(4-(9-(5-chloropyridazin-3-yl)-6-methyl-9H-purin-2-yl)piperazin-1-yl)phenol], the IC50 was above 10 µM.

`Cc1nc(N2CCN(c3ccc(O)cc3)CC2)nc2c1ncn2-c1cc(N2CCN(c3ccc(O)cc3)CC2)cnn1` [Example 64, 4-(4-(6-(2-(4-(4-hydroxyphenyl)piperazin-1-yl)-6-methyl-9H-purin-9-yl)pyridazin-4-yl)piperazin-1-yl)phenol]: the IC50 is 1 to 9.77 µM. On to `Cc1nc(N2CCN(c3ccc(O)cc3)CC2)nc2c1ncn2-c1cccc(Cl)c1` [Example 65, 4-(4-(9-(3-chlorophenyl)-6-methyl-9H-purin-2-yl)piperazin-1-yl)phenol], for which the IC50 is 1 to 9.77 µM. On the same count and under the same terms, the figure for `Nc1nc(N2CCN(c3ccc(O)cc3)CC2)nc2c1ncn2-c1ccccc1` [Example 66, 4-(4-(6-amino-9-phenyl-9H-purin-2-yl)piperazin-1-yl)phenol] is 1 to 9.77 µM; for `Cc1ccncc1-n1cnc2c(N)nc(N3CCN(c4ccc(O)cc4)CC3)nc21` [Example 67, 4-(4-(6-amino-9-(4-methylpyridin-3-yl)-9H-purin-2-yl)piperazin-1-yl)phenol] it is 1 to 9.77 µM. In the case of `Cc1cncc(-n2cnc3c(N)nc(N4CCN(c5ccc(O)cc5)CC4)nc32)c1` [Example 68, 4-(4-(6-amino-9-(5-methylpyridin-3-yl)-9H-purin-2-yl)piperazin-1-yl)phenol], the IC50 is above 10 µM. As to `Nc1nc(N2CCN(c3ccc(O)cc3)CC2)nc2c1ncn2-c1ccc(Cl)cc1Cl` [Example 69, 4-(4-(6-amino-9-(2,4-dichlorophenyl)-9H-purin-2-yl)piperazin-1-yl)phenol], the IC50 was above 10 µM. Same read-out and setting: the figure for `Cc1cc(C#N)ccc1-n1cnc2c(N)nc(N3CCN(c4ccc(O)cc4)CC3)nc21` [Example 70, 4-(6-amino-2-(4-(4-hydroxyphenyl)piperazin-1-yl)-9H-purin-9-yl)-3-methylbenzonitrile] is above 10 µM. On to `Nc1nc(N2CCN(c3ccc(O)cc3)CC2)nc2c1ncn2-c1ccccc1F` [Example 71, 4-(4-(6-amino-9-(2-fluorophenyl)-9H-purin-2-yl)piperazin-1-yl)phenol], for which the IC50 is 1 to 9.77 µM. Still for that read-out and setting: the result for `Nc1nc(N2CCN(c3ccc(O)cc3)CC2)nc2c1ncn2-c1cccc(F)c1` [Example 72, 4-(4-(6-amino-9-(3-fluorophenyl)-9H-purin-2-yl)piperazin-1-yl)phenol] reads 1 to 9.77 µM; that for `Nc1nc(N2CCN(c3ccc(O)cc3)CC2)nc2c1ncn2-c1ccc(F)cc1` [Example 73, 4-(4-(6-amino-9-(4-fluorophenyl)-9H-purin-2-yl)piperazin-1-yl)phenol], above 10 µM. The same measure, in the same setting: the figure for `N#Cc1ccc(-n2cnc3c(N)nc(N4CCN(c5ccc(O)cc5)CC4)nc32)cc1` [Example 74, 4-(6-amino-2-(4-(4-hydroxyphenyl)piperazin-1-yl)-9H-purin-9-yl)benzonitrile] is 0.1 to 0.977 µM. Take `Nc1nc(N2CCN(c3ccc(O)cc3)CC2)nc2c1ncn2-c1ccc(Cl)cc1` [Example 75, 4-(4-(6-amino-9-(4-chlorophenyl)-9H-purin-2-yl)piperazin-1-yl)phenol]: the IC50 is above 10 µM. On to `Cc1ccccc1-n1cnc2c(N)nc(N3CCN(c4ccc(O)cc4)CC3)nc21` [Example 76, 4-(4-(6-amino-9-(o-tolyl)-9H-purin-2-yl)piperazin-1-yl)phenol], for which the IC50 was above 10 µM.
